Measured values as given in patent publication US20250376711A1, “COMPOUND-DIAGNOSTIC MARKER FOR UTERINE BODY CANCER, METHOD FOR DETECTING ENZYMATIC ACTIVITY, METHOD FOR DIAGNOSIS OF UTERINE BODY CANCER, KIT COMPRISING THE COMPOUND, USES OF THE COMPOUND AND METHOD FOR THE TREATMENT OF UTERINE BODY CANCER” (URTESTE S.A., priority 2022, published 2025).
Where “and” joins values, the source holds several entries; their conditions need not be identical. Equal values may be shown once. Starred links: 1 amine or outer side, 2 acyl side, 3 side chain; linkers in the order of their positions; H or OH if unused. Non-standard residues stand in square brackets, D forms with d. No end group written: not given here. Benzoyl(5-NH,2-NO2) = O=C(c1cc(N[*:1])ccc1[N+](=O)[O-])[*:2]; 2Abz = Nc1ccccc1C(=O)O

What was measured:
Type in all cases: biochemical, human
[1] = system: enzymatic activity in samples from patients with bladder cancer; test: Selectivity of the cleavage: urine, bladder cancer; details: mixture of 20 samples
Source text: (§1) Arabic numerals indicate the numbers of given cancer types. The samples tested for each type of cancer were derived from 20 different patients for each of the tested cancers. The results are mean values for given cancer types.
(§2) The activity of the novel compounds according to the invention was studied in a group of 20 subjects diagnosed with uterine body cancer using the representative compound according to the invention. […] The remaining compounds according to the invention are characterized by the analogous mechanism of action. For this purpose, the representative compound according to the invention, ABZ^1-Pro^2-Arg^3-Thr^4-Ile^5-ANB^6-NH2, was dissolved in dimethyl sulfoxide (at a concentration of 0.5 mg/mL) and then 50 μL of the solution was mixed with 120 μL of a buffer (200 mM Tris-HCl, pH 8.0) and 80 μL of urine from a subject suffering from uterine body cancer. The measurement was performed on a 96-well plate designed for measuring absorbance and each sample was analysed in triplicate at the temperature of 37° C. The duration of the measurement was 60 minutes. During the measurement, the wavelength characteristic for the chromophore (ANB-NH2) being released was monitored at the wavelength 405 nm (range 380-430 nm).
(§3) Furthermore, the dependence of the cleavage selectivity of the substrate, i.e. the compound according to the invention, on the cancer being examined, was studied. […]

[2] = system: enzymatic activity in urine from patients with ovary cancer; test: Selectivity of the cleavage: urine, ovary cancer; details: samples from patients with ovary cancer, mixture of 20 samples
Source text: as §1, §2, §3

[3] = system: enzymatic activity in urine from a person diagnosed with uterine body cancer; test: RP HPLC analysis of substrate cleavage in urine from a person with uterine body cancer; details: randomly selected urine from a person diagnosed with uterine body cancer
[4] = system: enzymatic activity in urine from patients with stomach cancer; test: Selectivity of the cleavage: urine, stomach cancer; details: samples from patients with stomach cancer, mixture of 20 samples
Source text: as §1, §2, §3

[5] = system: enzymatic activity in urine from patients with liver cancer; test: Selectivity of the cleavage: urine, liver cancer; details: samples from patients with liver cancer, mixture of 20 samples
Source text: as §1, §2, §3

[6] = system: enzymatic activity in urine from patients with kidney cancer; test: Selectivity of the cleavage: urine, kidney cancer; details: samples from patients with kidney cancer, mixture of 20 samples
Source text: as §1, §2, §3

[7] = system: enzymatic activity in urine from patients with pancreas cancer; test: Selectivity of the cleavage: urine, pancreas cancer; details: samples from patients with pancreas cancer, mixture of 20 samples
Source text: as §1, §2, §3

[8] = system: enzymatic (proteolytic) activity in urine from healthy subjects; test: Hydrolysis of the chromogenic substrate in urine from healthy subjects (absorbance at 405 nm); details: for Results of absorbance analysis (rate of hydrolysis of the substrate): 405 nm, 37° C., 60 minutes, Tris-HCl pH 8.0, triplicate
[9] = system: enzyme(s) in the studied material (urine); test: Dependence of the hydrolysis level of the substrate on pH; details: FIG. 4
Procedure: Furthermore, measurements concerning the dependence of the proteolytic activity of the representative compound according to the invention on the reaction pH were performed.

[10] = system: enzymatic (proteolytic) activity in urine from subjects diagnosed with uterine body cancer; test: Hydrolysis of the chromogenic substrate in urine from subjects with uterine body cancer (absorbance at 405 nm); parameters: Results of absorbance analysis (rate of hydrolysis of the substrate): unit not given here; details: for Results of absorbance analysis (rate of hydrolysis of the substrate): 405 nm, 37° C., 60 minutes, Tris-HCl pH 8.0, triplicate
Procedure: as §2
The observed magnitude of increase in absorbance in time is different for each of the examined samples. […] Such a result may be due to the difference in the activity as well as the amount of enzymes responsible for the enzymatic cleavage (proteolysis). […] The result indicates the […] of proteolytic enzymes specific/characteristic of uterine body cancer.

[11] = system: enzymatic activity in urine from patients with prostate cancer; test: Selectivity of the cleavage: urine, prostate cancer; details: samples from patients with prostate cancer, mixture of 20 samples
Source text: as §1, §2, §3

[12] = system: enzymatic activity in urine from patients with lung cancer; test: Selectivity of the cleavage: urine, lung cancer; details: samples from patients with lung cancer, mixture of 20 samples
Source text: as §1, §2, §3

With “ABZ-Pro-Arg-Thr-Ile-ANB-NH2 ([2Abz]PRTI-{Benzoyl(5-NH,2-NO2)-NH2})” the “cleavage of the substrate / increase in absorbance” value [1] was “is not subject to cleavage”, the “cleavage of the substrate / increase in absorbance” value [2] was “is not subject to cleavage” and the “cleavage products of the substrate (RP HPLC)” value [3] was “cleaves into the peptide fragment ABZ-Pro-Arg-Thr-Ile-OH and the chromophore group of the compound (ANB-NH2)”. For the same substance, the “cleavage of the substrate / increase in absorbance” value [4] was “is not subject to cleavage”, the “cleavage of the substrate / increase in absorbance” value [5] was “is not subject to cleavage” and the “cleavage of the substrate / increase in absorbance” value [6] was “is not subject to cleavage”. For the same substance, the “cleavage of the substrate / increase in absorbance” value [7] was “is not subject to cleavage”, the “increase in absorbance within the diagnostic range” value ([8]; 20 urine samples from healthy subjects) was “no increase in absorbance” and the “Results of absorbance analysis (rate of hydrolysis of the substrate)” value (shortened to “Results of absorbance analysis”) ([8]; urine sample 21, healthy subject) was 0.000000. The “Results of absorbance analysis” value ([8]; urine sample 22, healthy subject) was 0.000000, the “Results of absorbance analysis” value ([8]; urine sample 23, healthy subject) was 0.000000 and the “Results of absorbance analysis” value ([8]; urine sample 24, healthy subject) was 0.000000. For the same substance, the “Results of absorbance analysis” value ([8]; urine sample 25, healthy subject) was 0.000000, the “Results of absorbance analysis” value ([8]; urine sample 26, healthy subject) was 0.000000 and the “Results of absorbance analysis” value ([8]; urine sample 27, healthy subject) was 0.000000. The “Results of absorbance analysis” value ([8]; urine sample 28, healthy subject) was 0.000000, the “Results of absorbance analysis” value ([8]; urine sample 29, healthy subject) was 0.000000 and the “Results of absorbance analysis” value ([8]; urine sample 30, healthy subject) was 0.000000. The “Results of absorbance analysis” value ([8]; urine sample 31, healthy subject) was 0.000000, the “Results of absorbance analysis” value ([8]; urine sample 32, healthy subject) was 0.000000 and the “Results of absorbance analysis” value ([8]; urine sample 33, healthy subject) was 0.000000. The “Results of absorbance analysis” value ([8]; urine sample 34, healthy subject) was 0.000000, the “Results of absorbance analysis” value ([8]; urine sample 35, healthy subject) was 0.000000 and the “Results of absorbance analysis” value ([8]; urine sample 36, healthy subject) was 0.000000. The “Results of absorbance analysis” value ([8]; urine sample 37, healthy subject) was 0.000000, the “Results of absorbance analysis” value ([8]; urine sample 38, healthy subject) was 0.000000 and the “Results of absorbance analysis” value ([8]; urine sample 39, healthy subject) was 0.000000. For the same substance, the “Results of absorbance analysis” value ([8]; urine sample 40, healthy subject) was 0.000000, the “dependence of the hydrolysis of the substrate on the reaction pH” value [9] was “maximum activity at alkaline pH” and the “colour intensity of the solution (absorbance) over time” value ([10]; all urine samples from persons diagnosed with uterine body cancer (T1-T20)) was “increased with time”. The “Results of absorbance analysis” value ([10]; urine sample T1, uterine body cancer) was 0.0066 and 0.006 and 0.0065, the “Results of absorbance analysis” value ([10]; urine sample T2, uterine body cancer) was 0.052 and 0.042 and 0.051 and the “Results of absorbance analysis” value ([10]; urine sample T3, uterine body cancer) was 0.0087 and 0.0088 and 0.0086. For the same substance, the “Results of absorbance analysis” value ([10]; urine sample T4, uterine body cancer) was 0.0069 and 0.0051 and 0.0067, the “Results of absorbance analysis” value ([10]; urine sample T5, uterine body cancer) was 0.044 and 0.038 and 0.042 and the “Results of absorbance analysis” value ([10]; urine sample T6, uterine body cancer) was 0.037 and 0.022 and 0.028. For the same substance, the “Results of absorbance analysis” value ([10]; urine sample T8, uterine body cancer) was 0.014 and 0.022 and 0.015, the “Results of absorbance analysis” value ([10]; urine sample T9, uterine body cancer) was 0.0088 and 0.0101 and 0.0092 and the “Results of absorbance analysis” value ([10]; urine sample T10, uterine body cancer) was 0.009 and 0.0093 and 0.0085. The “Results of absorbance analysis” value ([10]; urine sample T11, uterine body cancer) was 0.0123 and 0.0112 and 0.0145, the “Results of absorbance analysis” value ([10]; urine sample T12, uterine body cancer) was 0.0216 and 0.021 and 0.0199 and the “Results of absorbance analysis” value ([10]; urine sample T13, uterine body cancer) was 0.0045 and 0.0052 and 0.0048. The “Results of absorbance analysis” value ([10]; urine sample T14, uterine body cancer) was 0.005 and 0.0061 and 0.0058, the “Results of absorbance analysis” value ([10]; urine sample T15, uterine body cancer) was 0.0017 and 0.0015 and 0.0021 and the “Results of absorbance analysis” value ([10]; urine sample T16, uterine body cancer) was 0.0079 and 0.0084 and 0.0072. For the same substance, the “Results of absorbance analysis” value ([10]; urine sample T18, uterine body cancer) was 0.0073 and 0.0068 and 0.0075, the “Results of absorbance analysis” value ([10]; urine sample T19, uterine body cancer) was 0.055 and 0.051 and 0.048 and the “Results of absorbance analysis” value ([10]; urine sample T20, uterine body cancer) was 0.0077 and 0.0075 and 0.0081. For the same substance, the “cleavage of the substrate / increase in absorbance” value [11] was “is not subject to cleavage” and the “cleavage of the substrate / increase in absorbance” value [12] was “is not subject to cleavage”.
